According to patent publication US9011915B2, “Conveniently implantable sustained release drug compositions” (Ramscor, Inc., priority 2004, dated 2015):
Read-outs that look alike come from different tables or passages of the source. One block for each compound: values may come before it.

Tests used:
[1] = continuously exceeded over an extended period of time; cited from earlier work
[2] = In vivo release of rapamycin from TEAC formulation in vitreous cavity, LC-MS; design: species or system NZW rabbits; conditions: 5.0 mg rapamycin in 10:90 rapamycin:TEAC mixture
Procedure: Five (5.0) mg rapamycin contained in a 10:90 rapamycin:TEAC mixture were injected into the vitreous cavity of one eye in three 4.0-4.5 kg. NZW rabbits. Vitreous sampling was performed in each animal, and the concentration of released Rapamycin determined by liquid chromatography and mass spectrometry.

[3] = tested on: blood glucose levels; assay: Injected versus transdermal delivery of insulin, blood glucose levels; format: in vivo, mouse
Procedure: The comparison of injected versus transdermal delivery of several formulation of insulin was studied in a mouse model. One mg of porcine insulin was injected IP (intraperitoneal) into a mouse. […] One mg of porcine insulin mixed with 0.1 ml of tocopherol acetate was applied topically on the skin of a shaved mouse.
Porcine insulin (20 mg) was mixed in 199 mg/ml of tocopheryl acetate and formed a paste (or gel) which and was applied to the backs of shaved albino mice as follows: Mouse #1 was treated with 39.8 mg of insulin/tocopherol acetate paste, equaling 3.6 mg of insulin; mouse #2 was treated with 75.2 mg of insulin/tocopherol acetate paste, equaling 6.9 mg of insulin. Tail blood glucose levels were determined by Home Diagnostics, Inc. True Track smart system at intervals depicted in FIG. 22.

[4] = 3:1 dexamethasone:ciprofloxacin in benzyl benzoate
Procedure: The vials for the release studies were labeled and the weight of each vial was recorded. To each vial was added 3-4 grams of 0.9% saline solution and the weight was recorded. Then the SRF was injected or placed at the bottom of the vial. The weight of the SRF was recorded. An additional amount of 0.9% saline solution was added to a total of 10 grams of saline. The resulting vial was kept in an incubator or water bath at 37° C. Samples were taken periodically to measure the release profile of dexamethasone or triamcinolone acetonide using a HPLC instrument. Sampling protocol was carried out according to the following procedure: Using a disposable pipette, 8 grams of the saline solution containing dexamethasone or triamcinolone acetonide was withdrawn carefully from each vial. 8 grams of 0.9% saline solution was then added to each vial. The vials were kept at 37° C. after sampling.
The HPLC analysis was carried out using a Beckman Gold Instrument with an autosampler. […] Calibrators and samples were injected onto a C18 column (Rainin, 250×4.6 mm) containing a guard column (C18, 4.6 mm×1 cm) and analyzed, respectively. […] The dexamethasone or triamcinolone acetonide (retention times, 6-4 minutes) concentration of each sample was calculated from the standard curve using the software of the Beckman Gold instrument.

[5] = ingested 650 mg 2-ABA, cited from earlier work; for maximum synovial fluid levels / time of maximum synovial fluid levels: human knee
[6] = cited from earlier work
[7] = In vivo release of dexamethasone from 25% dexamethasone in benzyl benzoate (DB) injected into posterior segment, vitreous humor HPLC; design: species or system rabbit; conditions: for mean vitreous level of dexamethasone: 25% formulation in benzyl benzoate
Procedure: Benzyl benzoate (BB) served as placebo.
The in vivo release of the DB composition was studied in twenty-four rabbits. Twenty-five μl of 25% DB was injected into the posterior segment of one eye of twelve animals and the contralateral eye received a placebo. Another twelve animals received 50 μl of the DB in one eye and 50 μl of the BB placebo in the second eye. Animals were euthanized at the appropriate time points and vitreous humor samples were removed surgically. Dexamethasone concentration was determined by high pressure liquid chromatography (HPLC) as described in Example 5.

[8] = cited from earlier work; remark: listed apart in the source
[9] = tested on: COX-1 and COC-2 enzymes; conditions: acetylation of COX enzymes, in the eye; cited from earlier work
[10] = cited from earlier work; remark: listed apart in the source
[11] = 1 mg porcine insulin injected IP
[12] = 1 mg porcine insulin mixed with 0.1 ml tocopherol acetate, injected IP

Compound: CC1(C)O[C@@H]2C[C@H]3[C@@H]4CCC5=CC(=O)C=C[C@]5(C)[C@@]4(F)[C@@H](O)C[C@]3(C)[C@]2(C(=O)CO)O1 [TA, triamcinolone acetonide]
- concentration above which harmful complications (glaucoma, cataracts, cytotoxicity) can arise [1]: exceed 10 μg/ml

- duration of release of Rapamycin [2]: over five
Compound: CO[C@H]1C[C@@H]2CC[C@@H](C)[C@@](O)(O2)C(=O)C(=O)N2CCCC[C@H]2C(=O)O[C@H]([C@H](C)C[C@@H]2CC[C@@H](O)[C@H](OC)C2)CC(=O)[C@H](C)/C=C(\C)[C@@H](O)[C@@H](OC)C(=O)[C@H](C)C[C@H](C)/C=C/C=C/C=C/1C [Rapamycin, rapamycin]

Compound: porcine insulin: porcine insulin
- recovery from hypoglycemia [3, 11]: never recovered
- time to precipitous drop in glucose level [3, 11]: one-half
- recovery from hypoglycemia [3, 12]: did not recover
- time over which perceptible drop in glucose level was seen [3, 12]: up to 3 hours
- time of lowest glucose level ([3]; 1 mg porcine insulin mixed with 0.1 ml tocopherol acetate, topically on shaved skin): 5.5 h
- slow recovery to pre-treatment glucose levels after ([3]; transdermal insulin with tocopherol acetate): 24 to 48 h

- duration of release [4]: sixty
Compound: O=C(O)c1cn(C2CC2)c2cc(N3CCNCC3)c(F)cc2c1=O [ciprofloxacin]

Compound: O=C(O)c1ccccc1O [2-HBA, 2-hydroxy benzoic acid]
- maximum synovial fluid levels [5]: 14.5 µg/mL
- time of maximum synovial fluid levels [5]: 21.9 min
- maximum plasma levels [5]: 23 µg/mL
- time of maximum plasma levels [5]: 10.9 min
- 2-HBA level ([6]; after 120 hours): 5 µg/mL
- 2-HBA level ([6]; in 20 hours): 20 µg/mL
- 2-HBA level, initial burst ([6]; within 6 hours): 640 µg/mL

- mean vitreous level of dexamethasone ([7]; 25 μl injection, over a sixty day period): approximately 4.0 μg/ml
- mean vitreous level of dexamethasone ([7]; 50 μl, over a three-month period): approximately 8.0 μg/ml
- mean concentration of released dexamethasone in vitreous humor ([7]; high dose: 50 μl 25% DB (12 mg dexamethasone), Day 7 to Day 90): 5560 ng/mL
- mean level of dexamethasone in vitreous humor ([7]; low dose: 25 μl 25% DB (6 mg dexamethasone), Day 7 to Day 60): 2800 ng/mL
- concentration at 60 day ([7]; rabbit, vitreous humor, other: injected into the posterior segment of the eye, 6 mg, low dose: 25 μl 25% DB, end of the Day 7 to Day 60 period, read-out: mean level of dexamethasone in vitreous humor, declined to): 800 ng/mL
- concentration at 90 day ([7]; rabbit, vitreous humor, other: injected into the posterior segment of the eye, 12 mg, high dose: 50 μl 25% DB, by Day 90, read-out: mean level of dexamethasone in vitreous humor): 1850 ng/mL
Compound: C[C@@H]1C[C@H]2[C@@H]3CCC4=CC(=O)C=C[C@]4(C)[C@@]3(F)[C@@H](O)C[C@]2(C)[C@@]1(O)C(=O)CO [dexamethasone]

Compound: CC(=O)Oc1ccccc1C(=O)O [2-ABA, 2-acetyloxybenzoic acid]
- time in which an initial level is halved in the vitreous ([8]; initial level of 4 μg/ml): 1.5 to 2 h
- concentration of 2-ABA/2-HBA in the vitreous ([8]; rabbit eyes, at plasma levels of about 20-100 μg/ml): 5000 to 10000 ng/mL
- maximum synovial fluid levels [5]: 2.5 µg/mL
- time of maximum synovial fluid levels [5]: 19.4 min
- maximum plasma levels [5]: 3.3 µg/mL
- time of maximum plasma levels [5]: 7.7 min
- time until gone in the blood [5]: 75 min
- ID50 [9]: 0.9 to 9.0 µg/mL
- combined 2-ABA/2-HBA levels in the plasma ([10]; ingestion of 0.650-1.3 g 2-ABA, humans): 20 to 100 µg/mL
- fraction hydrolyzed to 2-HBA in the plasma ([10]; within 30 minutes): about 97%
